Experimental data from US12514859B2, “Pyrazole pyrimidine derivative and uses thereof” (Yissum Research Development Company of the Hebrew …, priority 2015, dated 2026).

Experiments:
[1] = tested on: p53, DNA damage response (γH2AX); assay: p53 and DNA damage response activation in RKO cells (Western blot, primary screen and dose response); type: cell-based; parameters: p53 stabilization: dose or concentration left out as unconfirmed; settings: for DDR & p53 activity: 16 hours, Western blot, average value
Protocol: (§1) Primary Screen in RKO cells for compounds having typical CKIα inhibitory activity (β-catenin and p53 stabilization and histone H2AX phosphorylation; see Elyada et al, Nature 2011 Feb. 17; 470(7334):409-13; Pribluda et al, Cancer Cell 2013 Aug. 12; 24(2):242-56). RKO colorectal cells were incubated with 10 μM of each of the compounds for 16 hours at 37° C. Cells were washed with PBS and cell pellets were incubated with ice cold protein lysis buffer containing protease inhibitor cocktail (1/200; Calbiochem) and phosphatase inhibitors (20 mM p-nitrophenyl phosphate (PNPP), 20 mM β-glycerophosphate and 300 nM okadaic acid). Western blot analysis was performed by means of standard techniques. Blots were incubated with antibodies detecting β-catenin (1/2,500; BD Transduction), p53 (DO-1&1801 hybridoma mix; dilution of 1:20 of supernatants from each), CKIα (C-19; 1/1,000; Santa Cruz Biotechnology) and phospho-histoneH2AX (S139; 1/1,000; Millipore). Secondary antibodies were HRP-linked goat anti-mouse, goat anti-rabbit and rabbit anti-goat antibodies (all 1/10,000; Jackson). Blots were developed using ECL (GE Healthcare).
(§2) Active compounds were further analyzed in a dose-response experiment (FIGS. 1A and 1B). Similar to the primary screen, RKO cells were incubated with descending concentrations of each of the active compounds for 16 hours at 37° C. Cell extract isolation and Western Blot analysis were similar to the primary screen.
(§3) Table 1 provides quantified information for compounds of the invention in activation of p53 and DNA damage response (DDR) and β-catenin stabilization as an indicator of Wnt pathway activation. p53 activation was determined according to the degree of protein stabilization in several Western blot assays (Western blot examples are shown in FIGS. 1A and 1B). […] In contrast, A35 started stabilizing p53 at […], with maximal stabilization at […] (FIG. 1A, upper right panel) and thus received an average value of +++ for p53 activation.

Wnt/β-catenin = assay: β-catenin stabilization (Wnt pathway activation) in RKO cells (Western blot); type: cell-based; settings: 16 hours, Western blot
Protocol: as §1, §2, §3

## Cn1ncc(-c2ccnc(NC3CCC(N)(CO)CC3)n2)c1CC1CC1 (centres unmarked) [Compound A19, (1-amino-4-((4-(5-(cyclopropylmethyl)-1-methyl-1H-pyrazol-4-yl)pyrimidin-2-yl)amino)cyclohexyl)methanol]
[1]
  DDR & p53 activity: + (+ indicates low, yet significant activation at a compound concentration of 6 μM)
Wnt/β-catenin
  β-Catenin activity: + (+ indicates low, yet significant activation at a compound concentration of 6 μM)

## Cn1ncc(-c2ccnc(N[C@H]3CC[C@H](N(C)C)CC3)n2)c1CC1CC1 [Compound A28, (1r, 4r)-N^1-(4-(5-(cyclopropylmethyl)-1-methyl-1H-pyrazol-4-yl)pyrimidin-2-yl)-N4,N4-dimethylcyclohexane-1,4-diamine]
Wnt/β-catenin
  β-Catenin activity: +++ (+++ indicates maximal β-catenin or p53 stabilization at >2 μM)

## Cn1ncc(-c2nc(NC3CCC(C)(N)CC3)ncc2Cl)c1CC1CC1 [Compound A30-1, (1R,4R)—N^1-(5-chloro-4-(5-(cyclopropylmethyl)-1-methyl-1H-pyrazol-4-yl)pyrimidin-2-yl)-4-methylcyclohexane-1,4-diamine]
[1]
  DDR & p53 activity: ++++ (++++ indicates maximal activation of p53 and DDR at >0.5 μM)

## CC(C)n1ncc(-c2ccnc(N[C@H]3CC[C@H](N)CC3)n2)c1CC1CC1 [Compound A35, (1r, 4r)-N^1-(4-(5-(cyclopropylmethyl)-1-isopropyl-1H-pyrazol-4-yl)pyrimidin-2-yl)cyclohexane-1,4-diamine]
[1]
  DDR & p53 activity: +++ (+++ indicates maximal β-catenin or p53 stabilization at >2 μM)
[1]; FIG. 1A
  concentration at which p53 stabilization starts / is significantly above non-treatment control: 0.2 µM
  concentration of maximal p53 stabilization: 1 µM

## N[C@H]1CC[C@H](Nc2nccc(-c3cnn(C4COC4)c3CC3CC3)n2)CC1 [Compound A43, (1R, 4R)—N^1-(4-(5-(cyclopropylmethyl)-1-(oxetan-3-yl)-1H-pyrazol-4-yl)pyrimidin-2-yl)cyclohexane-1,4-diamine]
[1]
  DDR & p53 activity: + (+ indicates low, yet significant activation at a compound concentration of 6 μM)
[1]; FIG. 1A
  concentration at which p53 stabilization starts / is significantly above non-treatment control: 6 µM
  p53 stabilization: no activity

## Cn1ncc(-c2ccnc(N[C@H]3CC[C@H](N)CC3)n2)c1CC1CCC1 [Compound A45, (1R, 4R)—N^1-(4-(5-(cyclobutylmethyl)-1-methyl-1H-pyrazol-4-yl)pyrimidin-2-yl)cyclohexane-1,4-diamine]
Wnt/β-catenin
  β-Catenin activity: + (+ indicates low, yet significant activation at a compound concentration of 6 μM)

## Cn1ncc(-c2ccnc(N[C@H]3CC[C@H](N4CCCCC4)CC3)n2)c1CC1CC1 [Compound A47, 4-(5-(cyclopropylmethyl)-1-methyl-1H-pyrazol-4-yl)-N-((1R,4R)-4-(piperidin-1-yl)cyclohexyl)pyrimidin-2-amine]
Wnt/β-catenin
  β-Catenin activity: + (+ indicates low, yet significant activation at a compound concentration of 6 μM)

## Cn1ncc(-c2ccnc(N[C@H]3CC[C@H](N4CCCC4)CC3)n2)c1CC1CC1 [Compound A49, 4-(5-(cyclopropylmethyl)-1-methyl-1H-pyrazol-4-yl)-N-((1R, 4R)-4-(pyrrolidin-1-yl)cyclohexyl)pyrimidin-2-amine]
[1]
  DDR & p53 activity: + (+ indicates low, yet significant activation at a compound concentration of 6 μM)

## Cn1ncc(-c2ccnc(N[C@H]3CC[C@H](N4CCC4)CC3)n2)c1CC1CC1 [Compound A50, N-((1R, 4R)-4-(azetidin-1-yl)cyclohexyl)-4-(5-(cyclopropylmethyl)-1-methyl-1H-pyrazol-4-yl)pyrimidin-2-amine]
[1]
  DDR & p53 activity: +++ (+++ indicates maximal β-catenin or p53 stabilization at >2 μM)

## Cn1ncc(-c2ccnc(N[C@H]3CC[C@H](N)CC3)n2)c1C(O)C1CC1 (stereo partly drawn) [Compound A58, (4-(2-(((1R,4R)-4-aminocyclohexyl)amino)pyrimidin-4-yl)-1-methyl-1H-pyrazol-5-yl)(cyclopropyl)methanol]
[1]
  DDR & p53 activity: + (+ indicates low, yet significant activation at a compound concentration of 6 μM)

## CC(C)n1ncc(-c2nc(N[C@H]3CC[C@H](N)CC3)ncc2Cl)c1CC1CC1 [Compound A59, (1R,4R)—N^1-(5-chloro-4-(5-(cyclopropylmethyl)-1-isopropyl-1H-pyrazol-4-yl)pyrimidin-2-yl)cyclohexane-1,4-diamine]
[1]
  DDR & p53 activity: +++ (+++ indicates maximal β-catenin or p53 stabilization at >2 μM)

## Cn1ncc(-c2nc(N[C@H]3CC[C@H](n4cccn4)CC3)ncc2Cl)c1CC1CC1 [Compound A64, N-((1R,4R)-4-(1H-pyrazol-1-yl)cyclohexyl)-5-chloro-4-(5-(cyclopropylmethyl)-1-methyl-1H-pyrazol-4-yl)pyrimidin-2-amine]
[1]
  DDR & p53 activity: + (+ indicates low, yet significant activation at a compound concentration of 6 μM)

## Cn1ncc(-c2nc(NC3CCC(NCc4ccccc4)CC3)ncc2Cl)c1CC1CC1 [Compound A74, (1R,4R)—N^1-benzyl-N^4-(5-chloro-4-(5-(cyclopropylmethyl)-1-methyl-1H-pyrazol-4-yl)pyrimidin-2-yl)cyclohexane-1,4-diamine]
[1]
  DDR & p53 activity: +++ (+++ indicates maximal β-catenin or p53 stabilization at >2 μM)

## Cn1ncc(-c2nc(NC3CCC(NCc4cccnc4)CC3)ncc2Cl)c1CC1CC1 [Compound A76, (1R,4R)—N^1-(5-chloro-4-(5-(cyclopropylmethyl)-1-methyl-1H-pyrazol-4-yl)pyrimidin-2-yl)-N^4-(pyridin-3-ylmethyl)cyclohexane-1,4-diamine]
[1]
  DDR & p53 activity: +++ (+++ indicates maximal β-catenin or p53 stabilization at >2 μM)

## Cn1ncc(-c2nc(NC3CCC(NCc4ccn[nH]4)CC3)ncc2Cl)c1CC1CC1 [Compound A82, (1R,4R)—N^1-((1H-pyrazol-3-yl)methyl)-N^4-(5-chloro-4-(5-(cyclopropylmethyl)-1-methyl-1H-pyrazol-4-yl)pyrimidin-2-yl)cyclohexane-1,4-diamine]
[1]
  DDR & p53 activity: +++ (+++ indicates maximal β-catenin or p53 stabilization at >2 μM)

## Cc1[nH]ncc1CN[C@H]1CC[C@H](Nc2ncc(Cl)c(-c3cnn(C)c3CC3CC3)n2)CC1 [Compound A91, (1R,4R)—N^1-(5-chloro-4-(5-(cyclopropylmethyl)-1-methyl-1H-pyrazol-4-yl)pyrimidin-2-yl)-N^4-((5-methyl-1H-pyrazol-4-yl)methyl)cyclohexane-1,4-diamine]
[1]
  DDR & p53 activity: +++ (+++ indicates maximal β-catenin or p53 stabilization at >2 μM)

## Cn1ncc(-c2nc(N[C@H]3CC[C@H](NCC(F)(F)F)CC3)ncc2Cl)c1CC1CC1 [Compound A94, (1R,4R)—N^1-(5-chloro-4-(5-(cyclopropylmethyl)-1-methyl-1H-pyrazol-4-yl)pyrimidin-2-yl)-N^4-(2,2,2-trifluoroethyl)cyclohexane-1,4-diamine]
[1]
  DDR & p53 activity: + (+ indicates low, yet significant activation at a compound concentration of 6 μM)

## Cn1ncc(-c2nc(N[C@H]3CC[C@H](N(Cc4cn[nH]c4)CC(F)(F)F)CC3)ncc2Cl)c1CC1CC1 [Compound A95, (1R,4R)—N1-((1H-pyrazol-4-yl)methyl)-N4-(5-chloro-4-(5-(cyclopropylmethyl)-1-methyl-1H-pyrazol-4-yl)pyrimidin-2-yl)-N1-(2,2,2-trifluoroethyl)cyclohexane-1,4-diamine]
[1]
  DDR & p53 activity: +++ (+++ indicates maximal β-catenin or p53 stabilization at >2 μM)
